# Measurements reported in patent US9861099B2, “Composition for enhancing plant disease control effect of monosaccharide” (MITSUI CHEMICALS AGRO, INC., priority 2013, dated 2018).
# Legend:
# Format in all cases: in vivo
# [1] = test system: Pseudoperonospora cubensis; test: Cucumber downy mildew (CDM) control test
# [2] = test system: Plasmopara viticola; test: Grape vine downy mildew (VDM) control test; conditions: Table 9: monosaccharide 10% liquid preparation, no assistant, 10-fold dilution (monosaccharide 1%)
# [3] = test system: Magnaporthe grisea; conditions: Table 9: monosaccharide 10% liquid preparation, no assistant, 10-fold dilution (monosaccharide 1%)
# [4] = test system: Sphaerotheca cucurbitae; test: Cucumber powdery mildew (CPM) control test; conditions: Table 9: monosaccharide 10% liquid preparation, no assistant, 10-fold dilution (monosaccharide 1%)
# [5] = test system: Rhizoctonia solani AGI-IA; test: Rice sheath blight (SB) control test; conditions: Table 9: monosaccharide 10% liquid preparation, no assistant, 10-fold dilution (monosaccharide 1%)
# Experimental: (SB: Sheath Blight) Test plants (rice variety: Sachikaze) were planted followed by cultivating until the third leaf appeared. In the test, dilutions (5 ml/pot) obtained by diluting with distilled water so that each formula reached a prescribed concentration were sprayed. After inoculating the seedlings one day after spraying with clumps of Rhizoctonia solani AGI-IA cultured for 14 days in oat medium, the seedlings were allowed to stand for about 24 hours in an inoculation room at a room temperature of 28° C. to promote the onset of disease. Disease development was investigated 14 days after inoculation, and the effects thereof were evaluated. Disease development was evaluated using the following indicators for disease control tests evaluated according to the methods described above. Furthermore, preventive values were calculated based on the disease development.
# [6] = test system: Botrytis cinerea; test: Tomato gray mold (GM) control test; conditions: Table 9: monosaccharide 10% liquid preparation, no assistant, 10-fold dilution (monosaccharide 1%)
# Experimental: (GM: Gray Mold) Test plants (tomato variety: Oogata Fukuju) were planted followed by cultivating until three first leaves appeared. In the test, dilutions (5 ml/pot) obtained by diluting with distilled water so that each formula reached a prescribed concentration were sprayed. After inoculating the seedlings one day after spraying by spraying with 1×10^7 organisms/ml of conidia of Botrytis cinerea, the seedlings were allowed to stand for about 48 hours in an inoculation room at a room temperature of 20° C. to 23° C. to promote the onset of disease. Disease development was investigated 2 days after inoculation, and the effects thereof were evaluated. Disease development was evaluated using the following indicators for disease control tests evaluated according to the methods described above. Furthermore, preventive values were calculated based on the disease development.
# [7] = Table 8: D-tagatose liquid preparation with assistant (5 parts), 10-fold dilution (D-tagatose 0.5%+assistant 0.5%), improvement vs D-tagatose only
Compound,"Evaluation Score CDM [1, 7]",also measured
OC[C@H]1O[C@H](O[C@H]2[C@H](O)[C@@H](O)C(O)O[C@@H]2CO)[C@H](O)[C@@H](O)[C@@H]1O (mixture of isomers) [Maltose],1 (Improvement in preventive value of 1 to less than 10),–
C[N+](C)(C)CC(O)CC(=O)[O-] (racemic) [DL-carnitine],2 (Improvement in preventive value of 10 to less than 20),–
CC(=O)O [Acetic acid],1 (Improvement in preventive value of 1 to less than 10),–
Nc1ncnc2[nH]cnc12 [Adenine],0,–
Nc1ncnc2c1ncn2[C@@H]1O[C@H](CO)[C@@H](O)[C@H]1O [Adenosine],0,–
OC[C@@H](O)[C@@H](O)[C@@H](O)[C@@H](O)CO [Allitol],2 (Improvement in preventive value of 10 to less than 20),–
O=C(O)c1ccccc1 [Benzoic acid],–,Evaluation Score CDM ([1]; in vivo): 0
O=C[C@H](O)[C@@H](O)[C@H](O[C@@H]1O[C@H](CO)[C@@H](O)[C@H](O)[C@H]1O)[C@H](O)CO [Cellobiose],1 (Improvement in preventive value of 1 to less than 10),–
Nc1ccn([C@@H]2O[C@H](CO)[C@@H](O)[C@H]2O)c(=O)n1 [Cytidine],1 (Improvement in preventive value of 1 to less than 10),–
Nc1cc[nH]c(=O)n1 [Cytosine],0,–
OC[C@H]1OC(O)[C@@H](O)[C@H](O)[C@@H]1O (stereo partly drawn) [D-altrose],4 (Improvement in preventive value of 30 to less than 40),–
O=C[C@@H](O)[C@H](O)[C@H](O)CO [D-arabinose],1 (Improvement in preventive value of 1 to less than 10),–
O=C(CO)[C@@H](O)[C@H](O)[C@H](O)CO [D-fructose],2 (Improvement in preventive value of 10 to less than 20),–
C[C@@H](O)[C@H](O)[C@H](O)[C@@H](O)C=O [D-fucose],2 (Improvement in preventive value of 10 to less than 20),–
O=C[C@H](O)[C@@H](O)[C@@H](O)[C@H](O)C(=O)O [D-galacturonic acid],3 (Improvement in preventive value of 20 to less than 30),–
O=C1O[C@H](CO)[C@@H](O)[C@H](O)[C@H]1O [D-gluconolactone],2 (Improvement in preventive value of 10 to less than 20),–
O=C[C@H](O)CO [D-glyceraldehyde],4 (Improvement in preventive value of 30 to less than 40),–
OC[C@@H](O)[C@@H](O)[C@H](O)[C@H](O)CO [D-mannitol],1 (Improvement in preventive value of 1 to less than 10),–
O=C[C@H](O)[C@H](O)[C@H](O)CO [D-ribose],2 (Improvement in preventive value of 10 to less than 20),–
OC[C@@H](O)[C@@H](O)[C@H](O)[C@@H](O)CO [D-sorbitol],1 (Improvement in preventive value of 1 to less than 10),–

Compound,"Evaluation Score CDM [1, 7]",also measured
O=C[C@@H](O)[C@@H](O)[C@@H](O)[C@H](O)CO [D-talose],2 (Improvement in preventive value of 10 to less than 20),preventive value VDM [2]: (0); preventive value B [3]: (50); preventive value CPM [4]: (17); preventive value SB [5]: (30)
O=C[C@H](O)[C@@H](O)[C@H](O)CO [D-xylose],1 (Improvement in preventive value of 1 to less than 10),–
O=C(CO)[C@@H](O)[C@H](O)CO [D-xylulose],1 (Improvement in preventive value of 1 to less than 10),–
"O=CC[C@H](O)[C@H](O)CO [Formula 2-deoxy-D-ribose, 2-deoxy-D-ribose]",4 (Improvement in preventive value of 30 to less than 40),–
O=C(O)CCCC(=O)O [Glutaric acid],–,Evaluation Score CDM ([1]; in vivo): 0
Nc1nc2nc[nH]c2c(=O)[nH]1 [Guanine],–,Evaluation Score CDM ([1]; in vivo): 0
Nc1nc2c(ncn2[C@@H]2O[C@H](CO)[C@@H](O)[C@H]2O)c(=O)[nH]1 [Guanosine],0,–
NC(=O)C[C@H](N)C(=O)O [L-asparagine],1 (Improvement in preventive value of 1 to less than 10),–
N[C@@H](CS)C(=O)O [L-cysteine],3 (Improvement in preventive value of 20 to less than 30),–
O=C(CO)[C@H](O)[C@@H](O)[C@@H](O)CO [L-fructose],–,preventive value GM [6]: (40); preventive value VDM [2]: (0); preventive value B [3]: (0); preventive value CPM [4]: (33); preventive value SB [5]: (60)
C[C@@H]1OC(O)[C@@H](O)[C@H](O)[C@@H]1O (stereo partly drawn) [L-fucose],2 (Improvement in preventive value of 10 to less than 20),–
NC(=O)CC[C@H](N)C(=O)O [L-glutamine],1 (Improvement in preventive value of 1 to less than 10),–
N[C@@H](Cc1c[nH]cn1)C(=O)O [L-histidine],3 (Improvement in preventive value of 20 to less than 30),–
CC[C@H](C)[C@H](N)C(=O)O [L-isoleucine],1 (Improvement in preventive value of 1 to less than 10),–
CSCC[C@H](N)C(=O)O [L-methionine],2 (Improvement in preventive value of 10 to less than 20),–
N[C@@H](Cc1ccccc1)C(=O)O [L-phenylalanine],3 (Improvement in preventive value of 20 to less than 30),–
O=C(O)[C@@H]1CCCN1 [L-proline],1 (Improvement in preventive value of 1 to less than 10),–
C[C@H](O)[C@H](O)[C@@H](O)[C@@H](O)C=O [L-rhamnose],2 (Improvement in preventive value of 10 to less than 20),–
N[C@@H](CO)C(=O)O [L-serine],1 (Improvement in preventive value of 1 to less than 10),–
C[C@@H](O)[C@H](N)C(=O)O [L-threonine],1 (Improvement in preventive value of 1 to less than 10),–

Compound,"Evaluation Score CDM [1, 7]",also measured
CC(O)C(=O)O (stereo not shown) [Lactic acid],0,–
O=C(O)CC(=O)O [Malonic acid],0,–
O=C(CO)[C@@H](O)[C@H](O[C@H]1O[C@H](CO)[C@@H](O)[C@H](O)[C@H]1O)[C@H](O)CO [Maltulose],1 (Improvement in preventive value of 1 to less than 10),–
OC[C@@H](O)[C@@H](O)CO [Meso-erythritol],3 (Improvement in preventive value of 20 to less than 30),–
OC[C@H]1O[C@H](OC[C@H]2O[C@H](O[C@]3(CO)O[C@H](CO)[C@@H](O)[C@@H]3O)[C@H](O)[C@@H](O)[C@@H]2O)[C@H](O)[C@@H](O)[C@H]1O [Raffinose],4 (Improvement in preventive value of 30 to less than 40),–
O=C[C@H](O)[C@@H](O)[C@H](O)[C@H](O)C(=O)[O-].[Na+] [Sodium D-glucuronate],1 (Improvement in preventive value of 1 to less than 10),–
OC[C@H]1O[C@@](CO)(O[C@H]2O[C@H](CO)[C@@H](O)[C@H](O)[C@H]2O)[C@@H](O)[C@@H]1O [Sucrose],1 (Improvement in preventive value of 1 to less than 10),–
OC[C@H]1O[C@H](O[C@H]2O[C@H](CO)[C@@H](O)[C@H](O)[C@H]2O)[C@H](O)[C@@H](O)[C@@H]1O [Trehalose],3 (Improvement in preventive value of 20 to less than 30),–
O=c1cc[nH]c(=O)[nH]1 [Uracil],1 (Improvement in preventive value of 1 to less than 10),–
O=c1ccn([C@@H]2O[C@H](CO)[C@@H](O)[C@H]2O)c(=O)[nH]1 [Uridine],0,–
OC[C@@H](O)[C@H](O)[C@@H](O)CO [Xylitol],2 (Improvement in preventive value of 10 to less than 20),–
D-glucose,1 (Improvement in preventive value of 1 to less than 10),–
D-mannose,2 (Improvement in preventive value of 10 to less than 20),preventive value GM [6]: (16); preventive value B [3]: (17); preventive value CPM [4]: (33); preventive value SB [5]: (60)
L-alanine,2 (Improvement in preventive value of 10 to less than 20),–
L-leucine,3 (Improvement in preventive value of 20 to less than 30),–
L-valine,3 (Improvement in preventive value of 20 to less than 30),–
Lactose,1 (Improvement in preventive value of 1 to less than 10),–
Stachyose,1 (Improvement in preventive value of 1 to less than 10),–
